Results on 9 compounds are retold here after patent US8765688B2, “Anti-dandruff compositions containing peptides” (priority 2007, dated 2014).

For assay [1], the system named is Malassezia furfur. The note with it: cited from earlier work; for growth inhibition of M. furfur (in words): 25 μM, Lopez-Garcia et al., 2006.
The test system of assay [2] is Malassezia furfur. As to the kind of experiment: Inhibition of Malassezia furfur growth test (optical density and colony-forming units), Examples 1 and 2. The class given is cell-based. Particulars: solution in DMSO, 25 μM; for colony-forming units: 10 μl plated out. Here is the method: Growth medium: M472-Pitysporum medium according to DSMZ
(§1) The components were sterilized at 121° C., 1 bar superatmospheric pressure for 20 minutes.
2 g/l of olive oil were sterilized by filtration and, after autoclaving, added to the other components.
(§2) Since it was a two-phase medium, the complete medium was treated with sonication in order to enlarge the phase boundary.
For agar plates, if appropriate, […] of agar agar were added to the medium.
The growth test was carried out as follows: A shake flask with M472-Pitysporum medium was inoculated with M. furfur and incubated with shaking overnight at 30° C. and 200 rpm.
A 96-well microtiter plate was filled with in each case 100 μl of M472-Pitysporum medium and inoculated with M. furfur suspension of the overnight culture. The M. furfur suspension was adjusted at the start of the experiment to an optical density, measured at 620 nm, of 0.02. The concentrates of the inhibitor solutions were 1 mM in water or DMSO.
(§3) The growth of the following batches was compared by measuring the optical density:
M. furfur suspension without the addition of an inhibitor.
This was to exclude that an inhibition is attributable merely to the effect of the DMSO, or a false positive result being observed.
M. furfur suspension and addition of an aqueous P18 solution with a final concentration of 25 μM.
M. furfur suspension and addition of a P18 solution in DMSO with a final concentration of 25 μM.
M. furfur suspension and addition of a zinc pyrithione (ZPT, Sigma-Aldrich) solution in DMSO with a final concentration of 25 μM.
M. furfur suspension and addition of a Ketoconazole (Sigma-Aldrich) solution in DMSO with a final concentration of 25 μM.
(§4) The microtiter plate was incubated with shaking at 30° C.
[…] The colony-forming units (CFU) were then determined by plating out 10 μl from each of the suspensions and, after incubation for 6 days, counting the colonies. The CFU was determined in order to exclude an influence of the two-phase medium and also the growth form of M. furfur on the optical density. […] The experiments were carried out at least in triple determinations and independently repeated.
For this, the procedure was as described in Example 1. 1 mM stock solutions of the fusion peptide P18, magainin 2 and cecropin A in DMSO were prepared. The final concentrations of the peptides in the growth experiments were 25 μM. The same amount of DMSO was likewise added to the suspension without inhibitor in order to exclude a growth-inhibiting effect of the DMSO.
The growth of the following mixtures was compared by measuring the optical density:
This was to exclude that an inhibition is attributable merely to the effect of the DMSO.
M. furfur suspension and addition of a magainin 2 solution in DMSO with a final concentration of 25 μM.
M. furfur suspension and addition of a cecropin A solution in DMSO with a final concentration of 25 μM.
M. furfur suspension and addition of a peptide P18 (SEQ ID NO3) solution in DMSO with a final concentration of 25 μM.

A further assay deals with Candida albicans. Particulars: cited from earlier work.
The subject of assay [3] is Malassezia furfur. The experiment in a line: Growth inhibition of Malassezia furfur with equal concentrations (% by weight) of P18, Zincpyrithione, Climbazole and Ketoconazole, CFU. The assay is classed as cell-based. Particulars: 362 μM final conc., mean ± SD. Here is the method:
(§5) Growth medium: M472-Pityrosporum medium according to DSMZ
as §1
(§6) 2 g/L of olive oil (sterilized by filtration and, after autoclaving, added to the other components)
as §2
(§7) For agar plates, if appropriate, 150 g/L of agar agar were added to the medium.
(§8) The growth test was carried out as follows: A shake flask with M472-Pityrosporum medium was inoculated with M. furfur and incubated with shaking overnight at 30° C. and 200 rpm.
A 96-well microtiter plate was filled with in each case 100 μl of M472-Pityrosporum medium and inoculated with M. furfur suspension of the overnight culture. The M. furfur suspension was adjusted at the start of the experiment to an optical density, measured at 600 nm, of 0.02. The concentrates of the inhibitor solutions were 1 mM in DMSO for the peptide P18 and 10 mM in DMSO for Zincpyrithione, Ketoconazole and Climbazole. The DMSO final concentrations were maintained the same in all experiments. This means that a corresponding volume of DMSO was added to the mixture in the case of a higher concentration of Zincpyrithione, Ketoconazole or Climbazole concentrate in order to ensure comparability to the mixtures containing P18.
as §3
M. furfur suspension and addition of P18 solution with a final concentration of 50 μM (equal to 0.0115% (w/w))
M furfur suspension and addition of Zincpyrithione (ZPT) solution with a final concentration of 362 μM (comparison to the mixture containing 50 μM of the peptide P18)
M furfur suspension and addition of Ketoconazole solution with a final concentration of 216 μM (comparison to the mixture containing 50 μM of the peptide P18)
M furfur suspension and addition of Climbazole solution with a final concentration of 390 μM (comparison to the mixture containing 50 μM of the peptide P18)
as §4
After 24 hours of incubation, the colony-forming units (CFU) were determined by plating out 10 μl of medium from each of the suspensions on agar plates. After incubation for 6 days, the colonies on the plates were counted. The CFU was determined in order to exclude an influence of the two-phase medium and also the growth form of M. furfur on the optical density. The experiments were carried out in at least two independent experiments, each with double determination.

Assay [4] has as its system Malassezia furfur. As to the kind of experiment: Incubation times with P18 from 5 minutes to 1 hour, CFU of M. furfur, compared to Zincpyrithione. The class given is cell-based. As to the method: Since growth inhibition of M. furfur by the peptide P18 (P18 peptide sequence H-KWKLFKKIPKFLHLAKKF-NH2; SEQ ID NO: 3) had so far only been analyzed over incubation times of more than one hour, now the effect of the peptide P18 within the first minutes of incubation (5 minutes, 10 minutes and 20 minutes) up to the first hour after adding to the M. furfur overnight culture was tested and compared to the reference substance Zincpyrithione (Sigma Aldrich). For this, the peptide P18 and the reference substance Zincpyrithione were used in concentrations of 100 μM, 200 μM and 500 μM. The experiments were carried out as follows:
as §5, §1, §6, §2, §7, §8
A 96-well microtiter plate was filled with in each case 100 μl of M472-Pityrosporum medium and inoculated with M. furfur suspension of the overnight culture. The M. furfur suspension was adjusted at the start of the experiment to an optical density, measured at 600 nm, of 0.1.
The growth of the following batches was compared:
M. furfur suspension and addition of the peptide P18 with a final concentration of 100 μM, plating out after 5 minutes, 10 minutes, 20 minutes and 60 minutes
M. furfur suspension and addition of the peptide P18 with a final concentration of 200 μM plating out after 5 minutes, 10 minutes, 20 minutes and 60 minutes
M. furfur suspension and addition of the peptide P18 with a final concentration of 500 μM plating out after 5 minutes, 10 minutes, 20 minutes and 60 minutes
M. furfur suspension and addition of Zincpyrithione with a final concentration of 100 μM plating out after 5 minutes, 10 minutes, 20 minutes and 60 minutes
M. furfur suspension and addition of Zincpyrithione with a final concentration of 200 μM plating out after 5 minutes, 10 minutes, 20 minutes and 60 minutes
M. furfur suspension and addition of Zincpyrithione with a final concentration of 500 μM plating out after 5 minutes, 10 minutes, 20 minutes and 60 minutes
as §4
After the incubation times indicated above, the colony-forming units (CFU) were determined by plating out 50 μl from each of the suspensions and, after incubation for 6 days, counting the colonies. The CFU was determined in order to exclude an influence of the two-phase medium and also the growth form of M. furfur on the optical density. The experiments were independently repeated.

Numbered stars: 1 amine (or outer) side, 2 acyl side, 3 side chain; on linkers, the order of the positions; unused ones are H or OH. Bridge positions count the residues as written; N and C are the ends. Square brackets hold non-standard residues; d marks the D form. Ends that are not written are not given here. Peptide text beside a SMILES is read from it. * marks the point of attachment. Orn(4R-OH,5R-OH) = O=C([C@H](C[C@@H](O)[C@@H](O)N[*:3])N[*:1])[*:2]; hTyr(3S-OH,4S-OH) = N[C@H](C(=O)O)[C@H](O)[C@@H](O)c1ccc(O)cc1; Pro(3S-OH,4S-Me) = C[C@H]1CN[C@H](C(=O)O)[C@H]1O; Benzoyl(4-octyloxy) = CCCCCCCCOc1ccc(C(=O)*)cc1; Hyp = O=C(O)[C@@H]1C[C@@H](O)CN1

As for “Cecropin P1 (SWLSKTAKKLENSAKKRISEGIAIAIQGGPR; Cecropin-P1; UniProt P14661 14-44, looked up)”, in the assay with Malassezia furfur [1], the “growth inhibition of M. furfur (in words)” value is reported as “moderate antifungal effect”.

In the case of magainin 2 [reference compound], the CFU with Malassezia furfur [2] (incubation time 64 h) and in the assay with Malassezia furfur [2] (incubation time 72 h) was >10 000 throughout. The “growth inhibition of M. furfur (in words)” value in the assay on Malassezia furfur [1] is given as “comparably better effect”.

As to phytosphingosines, the “concentrations inhibiting Candida albicans” value in the assay on Candida albicans (Nenoff et al., 2002) was 152 to 269 µg/mL.

Regarding `CC(=O)N1CCN(c2ccc(OCC3COC(Cn4ccnc4)(c4ccc(Cl)cc4Cl)O3)cc2)CC1` (stereo not drawn) [Ketoconazole, reference compound], the optical density was 0 in the assay on Malassezia furfur [2] (incubation time 0 h), 0 in the assay on Malassezia furfur [2] (incubation time 16 h), 0.004 in the assay on Malassezia furfur [2] (incubation time 24 h) and 0.013 in the assay on Malassezia furfur [2] (incubation time 40 h). Also, the colony-forming units was found to be 80 in the assay with Malassezia furfur [2] (incubation time 16 h), 22 in the assay on Malassezia furfur [2] (incubation time 24 h) and 90 in the assay with Malassezia furfur [2] (incubation time 40 h).

For the compound `CCCCCCCCOc1ccc(C(=O)N[C@H]2C[C@@H](O)[C@@H](O)NC(=O)[C@@H]3[C@@H](O)[C@@H](C)CN3C(=O)[C@H]([C@@H](C)O)NC(=O)[C@H]([C@H](O)[C@@H](O)c3ccc(O)cc3)NC(=O)[C@@H]3C[C@@H](O)CN3C(=O)[C@H]([C@@H](C)O)NC2=O)cc1` [cilofungin] ({Benzoyl(4-octyloxy)}-[Orn(4R-OH,5R-OH)]T[Hyp][hTyr(3S-OH,4S-OH)]T[Pro(3S-OH,4S-Me)]; lactam 1-C), the “C. albicans strains that did not grow” value in the assay on Candida albicans (cilofungin concentration of 0.62 μg/ml, Hanson et al. 1989) is given as 76%. For the same compound, the “inhibition of M. furfur (in words)” value in the assay on Malassezia furfur [1] (0.62 μg/ml, Hanson et al. 1989) is “not inhibited”.

“zinc pyrithione [ZPT, reference compound]”: the optical density with Malassezia furfur [2] (incubation time 0 h), in the assay on Malassezia furfur [2] (incubation time 16 h), in the assay on Malassezia furfur [2] (incubation time 24 h) and in the assay with Malassezia furfur [2] (incubation time 40 h) was 0 throughout. For the same compound, the colony-forming units with Malassezia furfur [2] (incubation time 16 h) was determined as 42; in the assay on Malassezia furfur [2] (incubation time 24 h) it was 22; in the assay with Malassezia furfur [2] (incubation time 40 h), 28; in the assay on Malassezia furfur [3] (incubation time 24 h), 60 ± 40; in the assay with Malassezia furfur [3] (incubation time 40 h) it was 26 ± 7. Moreover, the “colony-forming units after the indicated incubation time” value is >1000 with Malassezia furfur [4] (final concentration 100 μM, 5 minutes); >1000 in the assay on Malassezia furfur [4] (final concentration 100 μM, 10 minutes); >1000 in the assay with Malassezia furfur [4] (final concentration 100 μM, 20 minutes); >1000 with Malassezia furfur [4] (final concentration 100 μM, 60 minutes); >1000 with Malassezia furfur [4] (final concentration 200 μM, 5 minutes); >1000 in the assay with Malassezia furfur [4] (final concentration 200 μM, 10 minutes). For the same compound, the “colony-forming units after the indicated incubation time” value is reported as >1000 in the assay with Malassezia furfur [4] (final concentration 200 μM, 20 minutes); >1000 in the assay on Malassezia furfur [4] (final concentration 200 μM, 60 minutes); >1000 in the assay with Malassezia furfur [4] (final concentration 500 μM, 5 minutes); >1000 in the assay on Malassezia furfur [4] (final concentration 500 μM, 10 minutes); >1000 in the assay on Malassezia furfur [4] (final concentration 500 μM, 20 minutes); >1000 in the assay on Malassezia furfur [4] (final concentration 500 μM, 60 minutes).

Turning to basic phytosphingosines, in the assay with Malassezia furfur [1] (Nenoff et al., 2002), the “concentration inhibiting M. furfur” value was 6250 µg/mL.

As to phytosphingosine salts, the “sensitivity of M. furfur (in words)” value in the assay on Malassezia furfur [1] (Nenoff et al., 2002) is given as “appeared to be resistant”.

As to “cecropin A (KWKLFKKIEKVGQNIRDGIIKAGPAVAVVGQATQIAK; ends and bridges not checked; UniProt P01507 27-63, looked up) [peptide of 37 amino acids from Hyalophora cecropia, reference compound]”, the CFU in the assay on Malassezia furfur [2] (incubation time 64 h) and in the assay with Malassezia furfur [2] (incubation time 72 h) was >5000 throughout.
